IC50 and viability, T/C data for four compounds are collected here from PubChem BioAssay AID1845203 (Molecular Pharmacology Branch, DTP, NCI, 2023).

Values joined by “and” are separate entries in the source; they are usually repeats but may differ in a detail not shown here. Identical values can stand only once.

This test deals with G-401 tumor spheroids, viability % test/control. The experiment in a line: Anticancer human tumor G-401 cell line growth inhibition.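 On all read-outs here: spheroids exposed to compound for 7 days.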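 On viability, T/C: 100% = DMSO vehicle-treated spheroids.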 The note with it: spheroids with HUVEC and MSC; for viability, T/C: stronger effect = lower value. The gist of the method:
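Single agents and combinations were tested on spheroids built from tumor cells plus HUVEC and hMSC, at half-log dilutions starting at or near clinical Cmax, else 10 microM; final DMSO 0.25% (v/v).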

Where [1] appears, read: curve of first compound, second compound 0.003 µM.

In general, IC50 refers to the concentration that gives 50% inhibition. Usually viability, T/C stands for the result in the treated group divided by that in the control group, in per cent. In the case of `[2H]c1nc(C)nc([2H])c1-c1cc(NC[C@@H](C)c2cccc3c(C(=O)NC)ccnc23)ncn1` + CC[C@@]1(O)C(=O)OCc2c1cc1n(c2=O)Cc2cc3c(CN(C)C)c(O)ccc3nc2-1, the IC50 is, setting by setting: under setting [1], more than 10000 nM; (curve of first compound, second compound 0.00949 µM) less than 31.6 nM; (curve of first compound, second compound 0.03 µM) less than 31.6 nM; (curve of first compound, second compound 0.0949 µM) less than 31.6 nM; (curve of first compound, second compound 0.3 µM) less than 31.6 nM. Also, the viability, T/C by setting is: (second compound 0.003 µM, first compound 0.0316 µM) 83.5%; (second compound 0.003 µM, first compound 0.1 µM) 94.3%; (second compound 0.003 µM, first compound 0.316 µM) 85.3%; (second compound 0.003 µM, first compound 1 µM) 82.5%; (second compound 0.003 µM, first compound 3.16 µM) 75.9%; (second compound 0.003 µM, first compound 10 µM) 81%. In addition, the viability, T/C runs as follows: (second compound 0.00949 µM, first compound 0.0316 µM) 45.4%; (second compound 0.00949 µM, first compound 0.1 µM) 47.3%; (second compound 0.00949 µM, first compound 0.316 µM) 47.1%; (second compound 0.00949 µM, first compound 1 µM) 40.1%; (second compound 0.00949 µM, first compound 3.16 µM) 38.9%; (second compound 0.00949 µM, first compound 10 µM) 30.1%. The viability, T/C was 14.6% (second compound 0.03 µM, first compound 0.0316 µM); 17.2% (second compound 0.03 µM, first compound 0.1 µM); 14% (second compound 0.03 µM, first compound 0.316 µM); 16.9% (second compound 0.03 µM, first compound 1 µM); 15.4% (second compound 0.03 µM, first compound 3.16 µM); 12.3% (second compound 0.03 µM, first compound 10 µM). In addition, the viability, T/C by setting is: (second compound 0.0949 µM, first compound 0.0316 µM) 7.88%; (second compound 0.0949 µM, first compound 0.1 µM) 8.52%; (second compound 0.0949 µM, first compound 0.316 µM) 8.28%; (second compound 0.0949 µM, first compound 1 µM) 7.66%; (second compound 0.0949 µM, first compound 3.16 µM) 7.94%; (second compound 0.0949 µM, first compound 10 µM) 6.94%. The viability, T/C (second compound 0.3 µM, first compound 0.0316 µM) was 4.71%; the viability, T/C (second compound 0.3 µM, first compound 0.1 µM) is 4.82%; the viability, T/C (second compound 0.3 µM, first compound 0.316 µM) is 5.34%; the viability, T/C (second compound 0.3 µM, first compound 1 µM) is 5%; the viability, T/C (second compound 0.3 µM, first compound 3.16 µM) was 4.69%; the viability, T/C (second compound 0.3 µM, first compound 10 µM) was 5.48%.
In the case of `Cc1sc2c(c1C)C(c1ccc(Cl)cc1)=NC(CC(=O)Nc1ccc(O)cc1)c1nnc(C)n1-2` (centres undefined), the viability, T/C is, setting by setting: (compound 0.00949 µM) 93.3% and 106% and 91.1%; (compound 0.03 µM) 86.6% and 75.1% and 80.9%; (compound 0.0949 µM) 65.4% and 56.4% and 67.6%; (compound 0.3 µM) 34.7% and 35.5% and 37.8%; (compound 0.949 µM) 20.1% and 20% and 21.8%; (compound 3 µM) 10% and 11.8% and 7.68%. The half-maximal inhibitory concentration (IC50) (curve of compound) was 173 nM and 122 nM and 192 nM.
For the compound `CC[C@@]1(O)C(=O)OCc2c1cc1n(c2=O)Cc2cc3c(CN(C)C)c(O)ccc3nc2-1`, the viability, T/C (compound 0.003 µM) is 78.6% [middle of 10 runs]; the viability, T/C (compound 0.00949 µM) is 48.8% [middle of 10 runs]; the viability, T/C (compound 0.03 µM) is 16% [middle of 10 runs]; the viability, T/C (compound 0.0949 µM) is 7.7% [middle of 10 runs]; the viability, T/C (compound 0.3 µM) was 5.06% [middle of 10 runs]. In addition, the IC50 is 8.64 nM [middle of 5 runs] (compound alone, run of 12/02/2019) and 9.18 nM [middle of 5 runs] (compound alone, run of 12/12/2019).
With `O=C(c1cc(Cc2n[nH]c(=O)c3ccccc23)ccc1F)N1CCN(C(=O)C2CC2)CC1` + COc1cc2c(cc1O)CCNC21CSC2c3c(OC(C)=O)c(C)c4c(c3C(COC1=O)N1C(O)C3Cc5cc(C)c(OC)c(O)c5C(C21)N3C)OCO4, the IC50 was 9070 nM (curve of first compound, second compound 30 pM); 6010 nM (curve of first compound, second compound 94.9 pM); less than 94.9 nM (curve of first compound, second compound 0.0003 µM); less than 94.9 nM (curve of first compound, second compound 0.000949 µM); less than 94.9 nM under setting [1]. Further, the viability, T/C was 80.3% (second compound 30 pM, first compound 0.0949 µM); 97% (second compound 30 pM, first compound 0.3 µM); 88.3% (second compound 30 pM, first compound 0.949 µM); 77.8% (second compound 30 pM, first compound 3 µM); 49.1% (second compound 30 pM, first compound 9.49 µM); 30.1% (second compound 30 pM, first compound 30 µM). The viability, T/C (second compound 94.9 pM, first compound 0.0949 µM) was 89.4%; the viability, T/C (second compound 94.9 pM, first compound 0.3 µM) was 78.8%; the viability, T/C (second compound 94.9 pM, first compound 0.949 µM) is 82.2%; the viability, T/C (second compound 94.9 pM, first compound 3 µM) was 71.5%; the viability, T/C (second compound 94.9 pM, first compound 9.49 µM) is 35.9%; the viability, T/C (second compound 94.9 pM, first compound 30 µM) is 25.7%. The viability, T/C (second compound 0.0003 µM, first compound 0.0949 µM) is 32.3%; the viability, T/C (second compound 0.0003 µM, first compound 0.3 µM) was 37.4%; the viability, T/C (second compound 0.0003 µM, first compound 0.949 µM) was 39.3%; the viability, T/C (second compound 0.0003 µM, first compound 3 µM) was 29.5%; the viability, T/C (second compound 0.0003 µM, first compound 9.49 µM) is 18.7%; the viability, T/C (second compound 0.0003 µM, first compound 30 µM) is 16.2%. Also, the viability, T/C runs as follows: (second compound 0.000949 µM, first compound 0.0949 µM) 10.1%; (second compound 0.000949 µM, first compound 0.3 µM) 5.68%; (second compound 0.000949 µM, first compound 0.949 µM) 7.52%; (second compound 0.000949 µM, first compound 3 µM) 6.02%; (second compound 0.000949 µM, first compound 9.49 µM) 5.03%; (second compound 0.000949 µM, first compound 30 µM) 1.6%. The viability, T/C is 0.13% (second compound 0.003 µM, first compound 0.0949 µM); 0.15% (second compound 0.003 µM, first compound 0.3 µM); 0.12% (second compound 0.003 µM, first compound 0.949 µM); 0.18% (second compound 0.003 µM, first compound 3 µM); 0.2% (second compound 0.003 µM, first compound 9.49 µM); 0.24% (second compound 0.003 µM, first compound 30 µM).
